Experimental findings from PMC10185535, “Structural insights into cardiolipin replacement by phosphatidylglycerol in a cardiolipin-lacking yeast respiratory supercomplex” (Nature Communications, 2023) are described below.

The subject of test [1] is T1, CRD1∆ SC (III2IV1 trimeric respiratory supercomplex).
T1 construct: gene COB; native trimer (complex III dimer plus one complex IV) from cardiolipin-lacking strain, Cox4 with C-terminal His10, subunit Qcr10 lost; digitonin, His-Trap and SEC; with Cytochrome b-c1 complex subunit 1, mitochondrial; Cytochrome b-c1 complex subunit 2, mitochondrial; Cytochrome b-c1 complex subunit 6, mitochondrial; Cytochrome b-c1 complex subunit 7, mitochondrial; Cytochrome b-c1 complex subunit 9, mitochondrial; Cytochrome c oxidase subunit 2; Cytochrome c oxidase subunit 3; Cytochrome c oxidase subunit 4, mitochondrial; Cytochrome c oxidase subunit 6, mitochondrial; Cytochrome c oxidase subunit 7, mitochondrial; Cytochrome c oxidase subunit 8, mitochondrial; Cytochrome c oxidase subunit 9, mitochondrial; Cytochrome c oxidase subunit 12, mitochondrial; Cytochrome c oxidase subunit 13, mitochondrial; Cytochrome c oxidase subunit 26, mitochondrial
The experiment in a line: cryo-EM structure […] Å. The class given is binding, Saccharomyces cerevisiae. The conditions noted are these: Qi sites of complex III only (Cob); endogenous.

Test [2] deals with T2, WT SC (IV1III2IV1; III2IV2 tetrameric respiratory supercomplex).
T2 construct: gene COB; native tetramer (complex III dimer flanked by two complex IV), digitonin extract of mitochondria, FoF1-ATPase removed, sucrose gradient; no tag on the supercomplex; with Cytochrome b-c1 complex subunit 2, mitochondrial; Cytochrome b-c1 complex subunit 6, mitochondrial; Cytochrome b-c1 complex subunit 9, mitochondrial; Cytochrome b-c1 complex subunit 10, mitochondrial; Cytochrome c oxidase subunit 2; Cytochrome c oxidase subunit 3; Cytochrome c oxidase subunit 4, mitochondrial; Cytochrome c oxidase subunit 5A, mitochondrial; Cytochrome c oxidase subunit 6, mitochondrial; Cytochrome c oxidase subunit 7, mitochondrial; Cytochrome c oxidase subunit 8, mitochondrial; Cytochrome c oxidase subunit 9, mitochondrial; Cytochrome c oxidase subunit 12, mitochondrial; Cytochrome c oxidase subunit 13, mitochondrial; Cytochrome c oxidase subunit 26, mitochondrial
The experiment in a line: cryo-EM structure […] Å. The class given is binding, Saccharomyces cerevisiae. The conditions noted are these: Qi and Qo sites of complex III; Cob, Rip1 His181 (Qo); copurified endogenous.

The subject of test [3] is T1, CRD1∆ SC (III2IV1 trimeric respiratory supercomplex). As to the kind of experiment: oxygen consumption, Oroboros respirometry. Type of test: biochemical, Saccharomyces cerevisiae. The settings on record: 100 μM DQH2, 50 μM cytochrome c, 0.05% digitonin, pH 7.1, 30 °C.
Test [4] relates to T2, WT SC (IV1III2IV1; III2IV2 tetrameric respiratory supercomplex). The experiment in a line: oxygen consumption, Oroboros respirometry. The class given is biochemical, Saccharomyces cerevisiae. The settings on record: 100 μM DQH2, 50 μM cytochrome c, 0.05% digitonin, pH 7.1, 30 °C.
Test [5] addresses complex III2 (CIII) of the trimeric supercomplex (III2IV1) from the cardiolipin-lacking CRD1∆ S. cerevisiae mutant (S. cerevisiae (endogenous in strain YEB100)) (UniProt P07256). The experiment in a line: cryo-EM structure; trimeric SC (III2IV1) from the CRD1∆ strain, purified by His-Trap (Cox4-His10) and Superose 6 in 0.05% digitonin; Titan Krios, with added 30° tilt data; 3.3 Å.

For test [6], the target named is complex III2 (CIII, dimer of cytochrome bc1) of the wild type S. cerevisiae respiratory supercomplex (S. cerevisiae (endogenous in strain USY00b)) (UniProt P07256). The experiment in a line: cryo-EM structure; WT tetrameric SC (IV1III2IV1) purified by sucrose gradient in digitonin, diluted 1:9 in 15 mM Tris-HCl pH 7.2, 20 mM KCl; Titan Krios 300 kV; 3.2 Å.
The target of test [7] is T3, Cor1, subunit of CIII (S. cerevisiae (endogenous in strain …, UniProt P07256 27-457)).
T3 construct: Cor1, subunit of complex III, S. cerevisiae; source: endogenous, mitochondria of S. cerevisiae strain USY00b; within the purified III2IV2 SC (sucrose gradient)
T3 sequence (looked up): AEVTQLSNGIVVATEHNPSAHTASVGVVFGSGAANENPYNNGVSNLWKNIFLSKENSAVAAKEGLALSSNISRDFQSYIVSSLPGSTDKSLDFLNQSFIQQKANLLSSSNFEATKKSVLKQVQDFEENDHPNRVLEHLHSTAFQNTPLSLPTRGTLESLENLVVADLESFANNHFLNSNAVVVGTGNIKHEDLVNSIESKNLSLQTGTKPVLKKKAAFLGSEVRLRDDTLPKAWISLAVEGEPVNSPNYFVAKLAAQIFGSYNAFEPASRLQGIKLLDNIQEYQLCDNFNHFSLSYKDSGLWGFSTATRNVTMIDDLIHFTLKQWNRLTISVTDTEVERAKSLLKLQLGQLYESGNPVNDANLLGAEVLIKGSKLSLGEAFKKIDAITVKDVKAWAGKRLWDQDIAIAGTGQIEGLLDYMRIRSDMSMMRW
Described as above. The conditions noted are these: both partners purified.

`COC1=C(OC)C(=O)C(C/C=C(\C)CC/C=C(\C)CC/C=C(\C)CC/C=C(\C)CC/C=C(\C)CCC=C(C)C)=C(C)C1=O` [UQ6]: the “cryo-EM structure 3.3 Å” value in test [1] is reported as “Densities for UQ6 were found only at Qi sites”. Moreover, the “cryo-EM structure 3.2 Å” value in test [2] is recorded as “four UQ6 ligands were placed into the map, two in each monomer of CIII”.

`CCCCCCCCCCc1c(C)c(O)c(OC)c(OC)c1O` [reduced decylubiquinone]: the “oxygen consumption, Oroboros respirometry” value is “Due to limited amounts of the ∆CRD1 SC, only one determination was possible” in test [3]; “purified WT SC supplemented with Cyt c and reduced decylubiquinone (DQH2) also displayed similar activity” in test [4].

“complex III2 (CIII) of the trimeric supercomplex (III2IV1) from the cardiolipin-lacking CRD1∆ S. cerevisiae mutant (from UniProt P07256 27-457; P00163 1-385; P07143 62-309; P08067 31-215; P00128 1-127; P08525 1-94; P22289 1-66)” yielded a stoichiometry N in test [5] of 2.

In test [6], “complex III2 (CIII, dimer of cytochrome bc1) of the wild type S. cerevisiae respiratory supercomplex (from UniProt P07256 27-457; P00163 1-385; P07143 62-309; P08067 31-215; P00128 1-127; P08525 1-94; P22289 1-66; P37299 1-77)” yielded a stoichiometry N of 2.

B1: Cox5a, subunit of CIV (natural protein, UniProt P00424 21-153, looked up)
chain: AQTHALSNAAVMDLQSRWENMPSTEQQDIVSKLSERQKLPWAQLTEPEKQAVWYISYGEWGPRRPVLNKGDSSFIAKGVAAGLLFSVGLFAVVRMAGGQDAKTMNKEWQLKSDEYLKSKNANPWGGYSQVQSK
notes: Cox5a, subunit of complex IV, S. cerevisiae; source: endogenous, mitochondria of S. cerevisiae strain USY00b; within the purified III2IV2 SC (sucrose gradient)
B1: in test [7], the binding result is given as “binds”.

The term stoichiometry N denotes the number of molecules, sites or subunits per partner or assembly.
